Earlier results on one compound are cited in patent US20050187170A1, “Enhancing the efficiency of RNA polymerase inhibitors by using inosine monophosphate dehydrogenase inhibitors” (BIOCRYST PHARMACEUTICALS, INC., priority 2003, published 2005).

One data set addresses human IMPDH type I (Homo sapiens, UniProt P20839). As to conditions: read-out: Ki, IMPDH type I; type I expressed in normal cells; Carr, et al.
A further data set has as its system HIV. The conditions noted are these: human peripheral blood CD4+ lymphocytes and macrophages, established human cell lines.

Chain of human IMPDH type I (P20839 whole entry): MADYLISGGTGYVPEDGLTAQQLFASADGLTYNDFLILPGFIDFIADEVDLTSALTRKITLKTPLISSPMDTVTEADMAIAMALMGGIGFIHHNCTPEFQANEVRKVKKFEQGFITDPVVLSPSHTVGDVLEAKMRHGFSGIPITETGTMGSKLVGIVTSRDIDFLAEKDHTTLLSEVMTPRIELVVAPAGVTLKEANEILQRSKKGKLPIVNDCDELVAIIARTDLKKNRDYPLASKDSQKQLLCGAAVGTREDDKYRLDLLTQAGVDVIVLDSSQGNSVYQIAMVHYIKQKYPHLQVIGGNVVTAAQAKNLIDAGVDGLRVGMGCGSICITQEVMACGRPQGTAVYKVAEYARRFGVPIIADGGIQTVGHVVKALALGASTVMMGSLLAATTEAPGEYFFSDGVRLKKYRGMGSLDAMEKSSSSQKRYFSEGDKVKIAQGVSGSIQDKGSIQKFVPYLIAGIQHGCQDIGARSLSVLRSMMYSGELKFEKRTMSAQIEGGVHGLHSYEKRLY

For `COc1c(C)c2c(c(O)c1C/C=C(\C)CCC(=O)O)C(=O)OC2` [MPA, Mycophenolic acid], the Ki on human IMPDH type I is 33 to 37 nM. In addition, the “anti-HIV activity in vitro” value with HIV is “strong anti-HIV activity”.
